Patent US8772321B2, “Heteroannelated anthraquinone derivatives for inhibiting cancers” (National Defense Medical Center, priority 2008, dated 2014)
Where a SMILES comes first, the peptide text is derived from it. The star is where a group is joined. Cbz = O=C(OCc1ccccc1)*

Columns and labels:
Type in all cases: cell-based, human
HeLa cells [1] = experiment: Senescence-associated β-galactosidase staining; settings: DXR at low concentrations
Protocol: Cultured cells were washed in PBS (pH 7.4), incubated in a solution of 2% formaldehyde/0.2% glutaraldehyde, and then incubated overnight at 37° C. in freshly prepared staining solution consisting of 1 mg/mL X-gal (5-bromo-4-chloro-3-indolyl-β-D-galactoside), 5 mM K3Fe(CN)6, 5 mM K4Fe(CN)6, 150 mM NaCl and 2 mM MgCl2 in 40 mM citric acid/sodium phosphate, pH 6.0. Following this incubation, cells were washed with water and examined by light microscopy at 200× magnification.
(§1) In FIGS. 5C and 5D, HeLa cells were incubated with 2.5 μM NSC745885 for 24 hours. After 48 hours, cells were subjected to SA-β-galactosidase staining (FIG. 5C) and approximately 100 stained cells were quantified (*P<0.05; ** P<0.01; *** P<0.005). NSC745885 induced senescence at a rate of 25% (P=0.0085 compared to DMSO). (FIG. 5D) LC3B-I fragments were observed when the cells were exposed to the drug for longer period of time (FIG. 5A, panel labeled as LE). […] We also treated Hela cells with the autophagy inducer spermidine (Spd) and vehicle (DMSO), which act as the positive and the negative control, respectively.

[2] = system: p53-dependent reporter (pG13-LUC); experiment: p53-dependent reporter (pG13-LUC) luciferase assay; settings: HeLa cells co-transfected with Zac1 expression vector
Protocol: (§2) HeLa and HeLa/shp53 cells were grown in DMEM supplemented with 10% charcoal/dextran-treated fetal bovine serum. Cells in a 24-well plate were transfected with jetPEI (PolyPlus-transfection, France) according to the manufacturer's protocol; total DNA was adjusted to 1.0 μg by the addition of empty vector DNA. Luciferase assays were performed using the Promega Luciferase Assay kit, and the measurement was expressed numerically as relative light units (RLU). Luciferase activities were presented as means and standard deviation of two transfected sets. […] Instead, the reproducibility of the observed effects on luciferase activity was determined in multiple independent transfection experiments.
HeLa cells infected with human papillomavirus and expressing the E6 oncoprotein, which maintains endogenous wild-type p53 at a very low concentration, are used as a model system for studying human cervical tumorigenesis. In order for us to confirm the effects of DXR and NSC745885 on endogenous p53, HeLa cells were transiently transfected with a p53-dependent reporter (pG13-LUC) (FIG. 7A) and a p21 promoter reporter (p21-LUC) (FIG. 7B), along with an expression vector for a well-known p53 activator (Zac1).

HeLa cells [3] = experiment: Cell cycle profile by FACS
From the text: Cell cycle arrest is an important damage surveillance mechanism. […] Treating the cells with NSC745885 caused 47-58% of cells to arrest in sub-G1, which is indicative of cell death. This effect was dose- and time-dependent (FIG. 3, Panel B).

HeLa cells [4] = experiment: Autophagy: LC3B-II immunoblot; settings: 12 hours
Protocol: (§3) Cell lysates were prepared in lysis buffer (100 mM Tris-HCl pH 8.0, 150 mM NaCl, 0.1% SDS, and 1% Triton 100) at 4° C., separated by sodium dodecyl sulfate-polyacrylamide gel electrophoresis (SDS-PAGE), and then transferred onto a polyvinylidine difluoride membrane (Millipore, USA). Proteins were detected using antibodies against alpha actinin (ACTN), proliferating cell nuclear antigen (PCNA), p53, p21, cyclin B1, and cyclin D1 (Santa Cruz Biotechnology, USA), YH2A.X (EP854(2)Y, Epitomics, USA), cleaved caspase 3, cleaved poly(ADP-ribose) polymerase (PARP) and LC3B-II (Cell signaling, USA).
Altered intracellular localization of LC3B (LC3B-I) and increased electrophoretic mobility of LC3B (LC3B-II) are correlated with recruitment to autophagic membranes and can be used as molecular markers for autophagic activation.
In FIG. 5A, HeLa cells were treated with the indicated concentrations of DXR, NSC745885 for 12 hours, and then cell lysates were analyzed by immunoblot using antibodies directed against LC3. The results are representative of three independent experiments.

HeLa cells [5] = experiment: Apoptosis: cleaved PARP and caspase 3 immunoblot, DNA fragmentation gel; settings: various doses, 16 hours
Protocol: It is well noted that DXR can induce cardiomyocyte death by apoptosis and necrosis. DXR is also involved in other types of cellular processes, such as autophagy and senescence/aging. To investigate induction of apoptosis caused by NSC745885, we adopted DXR as a positive control and examined the levels of cleaved PARP and caspase 3 as apoptotic indicators using immunoblot (FIG. 4A), as well as DNA fragmentation using agarose gel electrophoresis (FIG. 4B). HeLa cells were treated with either DXR or NSC745885 at various doses for 16 hours. Subsequently, the total cellular protein was extracted and immunoblotted with antibodies against the cleaved types of PARP and caspase 3. Additionally, genomic DNA was isolated and analyzed by 2% agarose gel electrophoresis followed by ethidium bromide staining. The results (FIG. 4A and FIG. 4B) are representative of three independent experiments. […] Treatment with NSC745885 decreased protein stability, an effect that appeared to be selective, and was confirmed in other immunoblot analyses (shown in FIG. 6A, lanes 1 and 6).
as §3

HeLa cells [6] = experiment: DNA damage, immunoblot of γ-phosphorylation of histone H2A.X; settings: various doses, 12 hour
Protocol: The anthracyclin antibiotic agent doxorubicin (DXR) is an active cytotoxic reagent with a wide range of clinical indications, including treatment of solid tumors in the ovary, breast, and gastrointestinal systems, as well as treatment of liquid tumors such as leukemia. […] Specifically, HeLa cells were treated with NSC745885 at various doses for 12 hour. The phosphorylation of γ-H2A.X was subsequently detected by the immunoblot.
as §3

HeLa/shp53 cells = experiment: MTT cell viability assay, HeLa vs HeLa/shp53; settings: endogenous p53 silenced; 24, 48, 72 hours
Protocol: as §2
To understand the functional role that endogenous p53 plays in the cytotoxic effects of DXR and NSC745885, we measured cell viability of HeLa or HeLa/shp53 cells using MTT cell viability assay. In this assay, endogenous p53 is silenced, both in the presence or absence of the drugs (FIG. 8). […]

HeLa cells [7] = experiment: Autophagosome formation, GFP-LC3 fluorescence microscopy; settings: HeLa cells transfected with GFP-LC3; 2.5 μM NSC745885, 12 hours
Protocol: In FIG. 5B, HeLa cells were transfected with 0.25 μg of an expression vector for GFP-LC3 for 24 hours and then treated with 2.5 μM NSC745885 for 12 hours. […] Vehicle (DMSO) and spermidine (Spd) were used as a negative and positive control, respectively.
as §1

p53 and p21 = p53 and p21 protein expression, immunoblot; settings: HeLa cells, MG132 1 uM or 10 uM added 3 hours before harvesting; only at lower concentrations of NSC745885
Protocol: as §3
Cell cycle regulatory protein p21 is one of p53's targets. […] In this experiment, HeLa cells were treated with the indicated concentrations of DXR or NSC745885 for 12 hours and then assessed by immunoblot (FIG. 6A) and RT-PCR (FIG. 6B).
In FIG. 6C, HeLa cells were treated with the indicated concentrations of NSC745885 for 12 hours; proteasome inhibitor MG132 (1 uM or 10 uM) was added 3 hours before harvesting. Cell protein extracts were tested with anti-p53 and anti-p21 antibodies. The results are representative of two independent experiments.

SMILES	senescence rate (SA-β-galactosidase staining) (HeLa cells [1])	Zac1-induced p53-dependent reporter activity [2]	cell cycle arrest (HeLa cells [3])	LC3B-II fragment formation (autophagic activation) (HeLa cells [4])	induction of apoptosis (cleaved PARP, caspase 3, DNA fragmentation) (HeLa cells [5])	DNA damage (phosphorylation of γ-H2A.X, immunoblot) (HeLa cells [6])	sensitivity (cell viability, MTT) in HeLa/shp53 versus HeLa cells (HeLa/shp53 cells)	autophagosome formation (LC3 aggregation, GFP-LC3) (HeLa cells [7])	effect of MG132 on p53 and p21 degradation by NSC745885 (p53 and p21)
COc1cccc2c1C(=O)c1c(O)c3c(c(O)c1C2=O)C[C@@](O)(C(=O)CO)C[C@@H]3O[C@H]1C[C@H](N)[C@H](O)[C@H](C)O1 [DXR, doxorubicin, reference compound]	73%	inhibited Zac1-induced activity	cell cycle arrest in S phase	LC3B-II fragment formation	strongly induced	strongly induced DNA damage	dependent on endogenous p53 for cell killing	autophagosome formation	
CC(C)C[C@@H](C=O)NC(=O)[C@H](CC(C)C)NC(=O)[C@H](CC(C)C)NC(=O)OCc1ccccc1 [MG132, reference compound] (Cbz-Leu-Leu-Leu-aldehyde)									attenuate the degradation of p53 and p21
